Test results from patent publication US10493077B2, “Fused imidazo-piperidine JAK inhibitor compound” (THERAVANCE BIOPHARMA R&D IP, LLC, priority 2017, dated 2019).

Columns and labels:
[1] = molecular target: T1, PAK4 (Homo sapiens, UniProt O96013); assay: Kinome screen, PAK4; assay type: binding; settings: screened at 1 μM
T1 construct: made in house; host or cells: T7 phage in E. coli (BL21-derived) or HEK-293
Experimental: (§1) Kinase-tagged T7 phage strains were grown in parallel in 24-well blocks in an E. coli host derived from the BL21 strain. E. coli were grown to log-phase and infected with T7 phage from a frozen stock (multiplicity of infection=0.4) and incubated with shaking at 32° C. until lysis (90-150 minutes). The lysates were centrifuged (6,000×g) and filtered (0.2 μm) to remove cell debris. The remaining kinases were produced in HEK-293 cells and subsequently tagged with DNA for qPCR detection.
(§2) Streptavidin-coated magnetic beads were treated with biotinylated small molecule ligands for 30 minutes at room temperature to generate affinity resins for kinase assays. The liganded beads were blocked with excess biotin and washed with blocking buffer (SeaBlock (Pierce), 1% BSA, 0.05% Tween 20, 1 mM DTT) to remove unbound ligand and to reduce non-specific phage binding. […] Test compounds were prepared as 40× stocks in 100% DMSO and directly diluted into the assay. All reactions were performed in polypropylene 384-well plates in a final volume of 0.04 ml. […] The beads were then re-suspended in elution buffer (1×PBS, 0.05% Tween 20, 0.5 μM non-biotinylated affinity ligand) and incubated at room temperature with shaking for 30 minutes. The kinase concentration in the eluates was measured by qPCR.

[2] = molecular target: T2, CDK7 (Homo sapiens, UniProt P50613); assay: Kinome screen, CDK7; assay type: binding; settings: screened at 1 μM
T2 construct: made in house; host or cells: T7 phage in E. coli (BL21-derived) or HEK-293
T2 sequence (P50613 whole entry): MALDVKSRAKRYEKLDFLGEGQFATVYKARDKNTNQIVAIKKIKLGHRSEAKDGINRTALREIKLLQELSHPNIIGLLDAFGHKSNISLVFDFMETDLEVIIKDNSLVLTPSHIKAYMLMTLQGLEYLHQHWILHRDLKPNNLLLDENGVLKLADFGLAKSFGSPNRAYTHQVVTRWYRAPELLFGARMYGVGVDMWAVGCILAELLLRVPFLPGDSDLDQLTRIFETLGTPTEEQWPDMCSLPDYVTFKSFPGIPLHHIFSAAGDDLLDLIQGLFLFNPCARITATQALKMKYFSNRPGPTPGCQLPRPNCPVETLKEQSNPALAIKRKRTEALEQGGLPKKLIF
Experimental: as §1, §2

[3] = system: IFNγ induced pSTAT1; assay: Pharmacodynamic assay: inhibition of IFNγ-induced pSTAT1 in rabbit eyes; assay type: in vivo; settings: rabbits
Experimental: The ability of a single intravitreal administration of test compound to inhibit interferon-gamma (IFNγ) induced phosphorylation of STAT1 protein (pSTAT1) was measured in rabbit retina/choroid tissue.
A suspension formulation was prepared by combining compound 1 of Example 2 (Form 1), with 0.5% hydroxypropyl methylcellulose (HPMC E5), 0.02% Tween 80, and 9 mg/mL sodium chloride in purified water to attain a target concentration of 20 mg/mL.
Male, New Zealand White rabbits (Liveon Biolabs, India) were used for the studies. Animals were acclimated after arrival at the research facilities (Jubilant Biosys Ltd., India). Each rabbit was given a total of two intravitreal (IVT) injections with a total dose volume of 50 μL per eye. The first IVT injection (45 μL per eye) delivered 0.9 mg of test compound or vehicle. […] On the day of the injections, rabbits were anesthetized with an intramuscular injection of ketamine (35 mg/kg) and xylazine (5 mg/kg). Once deeply anesthetized, each eye was rinsed with sterile saline and IVT injections were performed using a 0.5 mL insulin syringe (50 units=0.5 mL) with a 31-gauge needle at the supra-nasal side of the both eyes by marking the position with a Braunstein fixed caliper (2¾″) 3.5 mm from the rectus muscle and 4 mm from the limbus.
Tissues were collected 2 hours after the second IVT injection with IFNγ. Retina/choroid tissues (R/C) were collected and homogenized, and pSTAT1 levels were measured by quantitative Western Blot on the ProteinSimple WES instrument. The percent inhibition of IFNγ-induced pSTAT1 was calculated in comparison to the vehicle/vehicle and vehicle/IFNγ groups.
Male, New Zealand White rabbits (Liveon Biolabs, India) were used for the studies. Animals were acclimated after arrival at the research facilities (Jubilant Biosys Ltd., India). Each rabbit was given a total of two intravitreal (IVT) injections with a total dose volume of 50 μL per eye. The first IVT injection (45 μL per eye) delivered 500 μg, 150 μg, or 50 μg of test compound or vehicle. Two weeks later, a second IVT injection (5 μL per eye) delivered IFNγ (1 μg/eye; stock solution 1 mg/mL; Kingfisher Biotech) or vehicle for the induction of IP-10. On the day of the injections, rabbits were anesthetized with an intramuscular injection of ketamine (35 mg/kg) and xylazine (5 mg/kg). Once deeply anesthetized, each eye was rinsed with sterile saline and IVT injections were performed using a 0.5 mL insulin syringe (50 units=0.5 mL) with a 31-gauge needle at the supra-nasal side of the both eyes by marking the position with a Braunstein fixed caliper (2¾″) 3.5 mm from the rectus muscle and 4 mm from the limbus.

[4] = system: IFNγ stimulated STAT1 phosphorylation in CD14+ monocytes; assay: Cellular JAK potency assay: inhibition of IFNγ-induced pSTAT1 in CD14+ monocytes; assay type: cell-based; settings: Homo sapiens, Monocyte, read-out: pIC50, inhibition of IFNγ-induced pSTAT1 (converted)
Experimental: The potency of the test compound for inhibition of interferon gamma (IFNγ) stimulated STAT1 phosphorylation was measured in CD14-positive (CD14+) monocytes derived from human whole blood (Stanford Blood Center) using flow cytometry. Because IFNγ signals through JAK, this assay provides a measure of JAK cellular potency.
Monocytes were identified using a fluorescein isothiocyanate (FITC) conjugated anti-CD14 antibody (Clone RM052, Beckman Coulter), and an Alexa Fluor 647 conjugated anti-pSTAT1 antibody (pY701, Clone 4a, BD Biosciences) was used to detect STAT1 phosphorylation.
Human peripheral blood mononuclear cells (PBMC) were isolated from human whole blood of healthy donors using a ficoll gradient. […] Cells were washed twice with FACS buffer, and then resuspended in 1:10 anti-pSTAT1 Alexa Fluor 647:FACS buffer (100 μL) for 30 min at RT in the dark, washed twice in FACS buffer, and analyzed using a LSRII flow cytometer (BD Biosciences).
To determine the inhibitory potency of the test compound, the median fluorescent intensity (MFI) of pSTAT1 was measured in CD14+ monocytes. IC50 values were determined from analysis of the inhibition curves of MFI vs compound concentration. Data are expressed as pIC50 (negative decadic logarithm IC50) values.

T1 sequence (O96013 whole entry): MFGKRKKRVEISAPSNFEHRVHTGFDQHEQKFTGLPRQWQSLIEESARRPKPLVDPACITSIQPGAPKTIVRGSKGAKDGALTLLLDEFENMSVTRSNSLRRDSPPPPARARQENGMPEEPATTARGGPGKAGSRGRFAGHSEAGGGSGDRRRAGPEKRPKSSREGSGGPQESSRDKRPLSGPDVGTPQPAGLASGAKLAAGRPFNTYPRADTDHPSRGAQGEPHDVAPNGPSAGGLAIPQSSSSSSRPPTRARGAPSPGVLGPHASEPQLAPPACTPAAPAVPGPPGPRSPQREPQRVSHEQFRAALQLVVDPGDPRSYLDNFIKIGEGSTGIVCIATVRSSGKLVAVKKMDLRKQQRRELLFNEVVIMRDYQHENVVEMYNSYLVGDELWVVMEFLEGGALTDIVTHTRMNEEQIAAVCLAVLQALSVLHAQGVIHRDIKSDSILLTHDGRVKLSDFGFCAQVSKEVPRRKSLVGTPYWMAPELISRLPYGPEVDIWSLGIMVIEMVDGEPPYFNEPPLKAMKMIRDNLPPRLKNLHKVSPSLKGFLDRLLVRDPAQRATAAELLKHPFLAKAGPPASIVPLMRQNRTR

CCc1cc(O)c(F)cc1-c1cc(F)c2c(-c3nc4c([nH]3)CCN(C(=O)CN3CCOCC3)C4)n[nH]c2c1 [Compound 1, 1-(2-(6-(2-ethyl-5-fluoro-4-hydroxyphenyl)-4-fluoro-1H-indazol-3-yl)-1,4,6,7-tetrahydro-5H-imidazo[4,5-c]pyridin-5-yl)-2-morpholinoethan-1-one]
inhibition at 1 µM [1]: 93%
inhibition at 1 µM [2]: 74%
inhibition of IFNγ-induced pSTAT1 in retina/choroid ([3]; Form 1 suspension, 0.9 mg intravitreal, 1 week pre-treatment): 85%
inhibition of IFNγ-induced pSTAT1 in retina/choroid ([3]; Form 1 suspension, single intravitreal dose, 3 month pre-treatment): 76%
inhibition of IFNγ-induced pSTAT1 in retina/choroid ([3]; Form 2 suspension, 50 μg intravitreal, 2 week pre-treatment): 61%
inhibition of IFNγ-induced pSTAT1 in retina/choroid ([3]; Form 2 suspension, 150 μg intravitreal, 2 week pre-treatment): 58%
inhibition of IFNγ-induced pSTAT1 in retina/choroid ([3]; Form 2 suspension, 500 μg intravitreal, 2 week pre-treatment): 79%
IC50 [4]: ~79.4 nM
